Assay results: patent publication US11654196B2, “Dosing regimens for echinocandin class compounds” (priority 2012, dated 2023)

Experiments:
[1] = Stability in dog plasma; assay type: in vitro ADME; conditions: dog, plasma
Description: (§1) Stock solutions of compound 22 and anidulafungin were prepared in DMSO at a concentration of 1 mg/mL. Plasma samples were prepared by mixing plasma with 10% volume of 1 M sodium phosphate, pH 7.4, to minimize pH fluctuation, and stock solution to produce plasma samples containing approximately 10,000 ng/mL compound 22 or anidulafungin. For the stability experiments in PBS buffer, plasma was replaced with phosphate buffered saline, pH 7.4. The DMSO concentration was 1% in the final incubation. Multiple individual aliquots (0.5 mL each) were prepared, capped, and incubated at 37° C. At each stability time point, the reaction was stopped by removing the sample from the incubator and adding 0.5 mL of acetonitrile containing internal standard. Samples were centrifuged for approximately 5 minutes at 10000 rpm to precipitate the proteins. Stability was measured in five different matrices (i.e. rat plasma, dog plasma, monkey plasma, human plasma, and PBS). An aliquot (100 μL) of supernatant of each sample was assayed by HPLC. The percentage of anidulafungin and compound 22 remaining at each time point was calculated by dividing the peak area ratio at each time point by the peak area ratio at time zero.

[2] = Circulating half-life in dog; assay type: in vivo; conditions: assays conducted by applicant
[3] = Circulating half-life in monkey; assay type: in vivo; conditions: assays conducted by applicant
[4] = Circulating half-life in rat; assay type: in vivo; conditions: assays conducted by applicant
[5] = Stability in monkey plasma; assay type: in vitro ADME; conditions: monkey, plasma
Description: as §1

[6] = Pharmacokinetics in chimpanzee, IV dose; conditions: in vivo
Description: Pharmacokinetic studies were performed in six adult female chimpanzees. Two chimpanzees received 1-mg/kg IV dose of compound 22 formulated in 5% dextrose (60-minute infusion). Two chimpanzees received 10-mg/kg oral dose of compound 22 formulated in 5% citric acid (oral bolus). Two chimpanzees received 1-mg/kg IV dose of anidulafungin formulated as package label (5% dextrose, 60-minute infusion). Plasma samples were collected from all chimps for 10 days to 22 days. PK curves are depicted in FIGS. 16A, 16B, and 18. All pharmacokinetic calculations were performed using WinNonlin version 4.1 (Pharsight Corp) by noncompartmental analysis.

[7] = Solubility in aqueous media of varying pH; assay type: physicochemical; conditions: for solubility: ambient temperature, compound 22 as acetate salt, salt free equivalent
[8] = Stability in phosphate buffered saline (PBS); assay type: physicochemical; conditions: buffer, pH 7.4
Description: as §1

[9] = Circulating half-life in chimpanzee; assay type: in vivo; conditions: assays conducted by applicant
[10] = Pharmacokinetics (oral bioavailability) following oral administration in beagle dogs; assay type: in vivo; design: key to Improvement (ratio of % oral bioavailability to saline): NI = no improvement in oral bioavailability in comparison to saline; conditions: for % BA / Improvement (ratio of % oral bioavailability to saline): oral
Description: Echinocandin class compounds were administered to beagle dogs weighing approximately 6-10 kg. Each animal received the appropriate prepared test article in a single oral capsule dose at a target dose level of about 7-10 mg/kg. Immediately after dosing, each animal was offered 20 mL-30 mL of water orally (Groups 1-4) or 30 mL of water orally to assist in swallowing the capsule.
Animals were treated and blood samples were drawn and analyzed as provided in Example 1.
The bioavailability of each oral dose formulation was estimated by comparison to intravenous plasma concentration data in dogs from Example 1. The results provided in Table 3 show the oral bioavailability for the echinocandin class compound in saline (formulation 11), and the improvement over saline with the use of a formulation of the invention.

[11] = Stability in rat plasma; assay type: in vitro ADME; conditions: rat, plasma
Description: as §1

[12] = Stability in human plasma; assay type: in vitro ADME; conditions: human, plasma
Description: as §1

CC(=O)[O-].CCCCCOc1ccc(-c2ccc(-c3ccc(C(=O)NC4CC(O)C(OCC[N+](C)(C)C)NC(=O)C5C(O)C(C)CN5C(=O)C(C(C)O)NC(=O)C(C(O)C(O)c5ccc(O)cc5)NC(=O)C5CC(O)CN5C(=O)C(C(C)O)NC4=O)cc3)cc2)cc1 (centres unmarked) [Compound 22]
% remaining ([1]; 0 h): 100% | % remaining ([1]; 1 h): 97.9% | % remaining ([1]; 2 h): 107% | % remaining ([1]; 4 h): 119% | % remaining ([1]; 8 h): 94.0% | % remaining ([1]; 21 h): 87.3% | % remaining ([1]; 44 h): 78.6% | Half-life [2]: 53 h | Half-life [3]: 40 h | Half-life [4]: 30 h | % remaining ([5]; 0 h): 100% | % remaining ([5]; 1 h): 109% | % remaining ([5]; 2 h): 110% | % remaining ([5]; 4 h): 143% | % remaining ([5]; 8 h): 115% | % remaining ([5]; 21 h): 104% | % remaining ([5]; 44 h): 93.5% | Clearance used to calculate human circulating concentrations ([6]; human): 3.4 mL/h/kg | Plasma half life used to calculate human circulating concentrations ([6]; human): 80 h | Clearance compared with anidulafungin [6]: lower clearance | Half-life compared with anidulafungin [6]: longer half-life | Plasma half-life (IV) ([6]; iv): 81 h | clearance ([6]; iv): 3.4 mL/h/kg | solubility ([7]; 90% Water:10% glycerol): >102.3 mg/mL | solubility ([7]; Acetate buffer (0.01M, pH 4.5)): >145 mg/mL | solubility ([7]; Acetate buffer (0.01M, pH 5.5)): >141 mg/mL | solubility ([7]; Sterile Water for injection): >142 mg/mL | solubility ([7]; Tris buffer (0.01M, pH 8.5)): >138 mg/mL | Aqueous solubility compared with anidulafungin ([7]; variety of aqueous mediums): dramatically greater aqueous solubility than anidulafungin | % remaining ([8]; 0 h): 100% | % remaining ([8]; 1 h): 105% | % remaining ([8]; 2 h): 103% | % remaining ([8]; 4 h): 107% | % remaining ([8]; 8 h): 101% | % remaining ([8]; 21 h): 96.3% | % remaining ([8]; 44 h): 96.1% | Half-life [9]: 81 h | % BA in saline ([10]; oral about 7-10 mg/kg, formulation 11 (saline)): 3.50% | % BA ([10]; formulation 1): (8.21%) | Improvement (ratio of % oral bioavailability to saline) ([10]; formulation 1): 2.3 | % BA ([10]; formulation 3): (9.76%) | Improvement (ratio of % oral bioavailability to saline) ([10]; formulation 3): 2.8 | % BA ([10]; formulation 5): (12.3%) | Improvement (ratio of % oral bioavailability to saline) ([10]; formulation 5): 3.5 | % BA ([10]; formulation 7): (12.2%) | Improvement (ratio of % oral bioavailability to saline) ([10]; formulation 7): 3.5 | Improvement (ratio of % oral bioavailability to saline) ([10]; formulation 8): NI | Improvement (ratio of % oral bioavailability to saline) ([10]; formulation 9): NI | Improvement (ratio of % oral bioavailability to saline) ([10]; formulation 10): NI | Improvement (ratio of % oral bioavailability to saline) ([10]; formulation 12): NI | % BA ([10]; formulation 13): (8.80%) | Improvement (ratio of % oral bioavailability to saline) ([10]; formulation 13): 2.5 | % BA ([10]; formulation 14): (15.0%) | Improvement (ratio of % oral bioavailability to saline) ([10]; formulation 14): 4.3 | % BA ([10]; formulation 15): (13.4%) | Improvement (ratio of % oral bioavailability to saline) ([10]; formulation 15): 3.8 | % BA ([10]; formulation 16): (5.50%) | Improvement (ratio of % oral bioavailability to saline) ([10]; formulation 16): 1.5 | % BA ([10]; formulation 17): (11.8%) | Improvement (ratio of % oral bioavailability to saline) ([10]; formulation 17): 3.3 | % remaining ([11]; 0 h): 100% | % remaining ([11]; 1 h): 103% | % remaining ([11]; 2 h): 106% | % remaining ([11]; 4 h): 138% | % remaining ([11]; 8 h): 99.3% | % remaining ([11]; 21 h): 96.5% | % remaining ([11]; 44 h): 91.2% | % remaining ([12]; 0 h): 100% | % remaining ([12]; 1 h): 98.5% | % remaining ([12]; 2 h): 101% | % remaining ([12]; 4 h): 125% | % remaining ([12]; 8 h): 97.5% | % remaining ([12]; 21 h): 95.7% | % remaining ([12]; 44 h): 93.3%
